Assay results: article PMC5799093, “Proceedings of Réanimation 2018, the French Intensive Care Society International Congress” (Annals of Intensive Care, 2018)

Experiments:
[1] = comparison value; cited from earlier work
[2] = Acute amitriptylin and clomipramine poisonings in the ICU, clinical features and pharmacokinetics
[3] = Amikacin peak serum concentration (Cmax) after loading dose in patients on ECMO; type: in vivo, adult patients; conditions: IV loading dose 25 mg kg total body weight; Cmax 30 min after end of infusion; VA- or VV-ECMO; n = 106
[4] = test system: carbapenemase-producing Enterobacteriaceae; experiment: Antibiotic susceptibility of Enterobacteriaceae with decreased susceptibility to carbapenems; type: cell-based; conditions: for resistant rate: CA-SFM 2015
Pseudomonas aeruginosa [5] = experiment: Disk diffusion susceptibility of P. aeruginosa isolated from burned patients (P-48); type: cell-based; conditions: for strains resistant: 485 strains from burned patients 2012-2015, disk diffusion, FSM breakpoints
[6] = Amikacin peak serum concentration (Cmax) in ICU patients with septic shock/severe sepsis (P-52); type: in vivo, human
[7] = critically ill patients, 25 mg kg dose; ref 1 (de Montmollin et al. 2014); cited from earlier work
Description: Introduction: Amikacin infusion requires to target a peak serum concentration (Cmax) 8–10 times the minimal inhibitory concentration, corresponding to a Cmax at 60–80 mg L^−1 for the least susceptible bacteria. […] Membrane sequestration, alteration of the volume of distribution and lack of data in this population make drugs pharmacokinetics (PK) on ECMO challenging. Our study aimed to assess the prevalence of insufficient Amikacin Cmax in critically ill patients on ECMO and to identify re ...

[8] = set-up: method as in Taccone in 2010; conditions: dosages of 25 mg kg; ref Taccone in 2010; cited from earlier work
Pseudomonas = conditions: January 2010 - June 2014
Acinetobacter baumannii = conditions: January 2010 - June 2014
[9] = human, in vivo
Description: Patients and methods: This study was conducted in burn center in Tunis. Patients with documented and or suspected infections were included. Were excluded pregnant women and patients with renal failure. […] For the 2nd, 3rd, 4th and 5th day, blood samples were taken before the infusion (T0), at the end (T1) and 30 min after the end of it (T2).

Escherichia-coli = experiment: Resistance in nosocomial urinary tract infection: Escherichia-coli (P-219); conditions: January 2010 - June 2014
[10] = not given; remark: listed apart in the source
[11] = test system: TREM-1 signalling pathway; conditions: in vivo; cited from earlier work
Text: Introduction: MOTREM is the clinically formulated synthetic peptide (LR12) that is currently being developed for the treatment of sepsis and for the prevention of sequelae after acute myocardial infarction. […] Its pharmacological action occurs via the Triggering Receptor Expressed on Myeloid Cells-1 (TREM-1) signalling pathway.

clinical = conditions: male, human, in vivo, iv
Description: (§1) Patients and methods: Twenty-seven healthy male volunteers have been included in this clinical trial. The product was administered by continuous intravenous infusion (CIV). A single ascending dose design with 8 dose levels was used. […] All volunteers were carefully monitored. Before escalation to the next dose level, safety and PK data of the previous dose level were reviewed by a safety review committee.

[12] = MOTREM phase I first-in-human single ascending dose trial, safety and pharmacokinetics; conditions: in vivo
Description: as §1

[13] = Major arrhythmia recurrence after resuscitated ischemic VF/VT, PROCAT registry (P-86); type: in vivo, human; conditions: multivariate analysis, 256 patients, 104 treated; p = 0.870
Text: Patients and methods: The PROCAT registry captures all data from patients admitted in a tertiary hospital center after a resuscitated cardiac arrest (CA). We selected patients with an initial VF VT caused by an acute coronary syndrome (ACS) and who were successfully treated with early percutaneous coronary intervention (PCI) on admission. The primary endpoint was the recurrence of major arrhythmia between ICU admission and ICU discharge. All arrhythmias resulting in CA recurrence and or severe arterial hypotension requiring infusion of vasopressors were classified as major arrhythmias. Multivariate logistic regression identified factors associated with the occurrence of major arrhythmias.

[14] = Caffeine in bronchiolitis related apnea, PICU retrospective study (P-118); conditions: 49 treated of 54 infants; loading 20 mg kg, 5 mg kg day maintenance
[15] = Fatal carbon monoxide intoxication, forensic series (P-181); conditions: 29 fatal cases, toxicological analysis at autopsy
P. aeruginosa = experiment: Antibiotic resistance of P. aeruginosa (P-147); type: cell-based
[16] = test system: Pseudomonas aeruginosa (PA); experiment: Antibiotic resistance of Pseudomonas aeruginosa before/after antibiotic stewardship (P-214); type: cell-based
Pseudomonas aeruginosa [17] = experiment: Resistance of nosocomial infection isolates: Pseudomonas aeruginosa (P-222); type: cell-based; conditions: n = 14 isolates, 2016
Text: Patients and methods: This was a retrospective study conducted within a 22-bed medical ICU of a Tunisian teaching hospital (301 beds) carried from January 1st to December 31, 2016. We recorded demographic patients’ characteristics which ICU’s stay was complicated with at least one NI. Then we described pathogens and microbiological specificities of NI.

[18] = 2 g day intermittent infusion, trough concentrations, theoretical target MIC 2 mg/L, 21 patients, 63 samples
[19] = Eight of 49 patients
[20] = New-generation anticonvulsive drug poisoning in ICU with pharmacokinetics (P-146); type: in vivo, human; conditions: membrane-stabilizing effects resulting in acute cardiac failure
Text: Pharmacokinetics modeling and parameters were obtained using WinNonlin v.5.1 software.

eclampsia = experiment: Eclampsia survey, recurrence under magnesium sulfate prevention; type: in vivo, patients; conditions: 83 women
Text: Patients and methods: We conducted a retrospective survey in a third level Tunisian university teaching hospital from January 2004 to December 2016. We included all patients with the diagnosis of eclampsia.

GABA-A receptors = experiment: PET imaging with 11C-flumazenil, interaction of tramadol with GABA-A receptors; type: binding; conditions: 11C-flumazenil fixation in the rat brain
[21] = test system: Extended spectrum betalactamase producing Enterobacteriaceae; experiment: Antibiotic resistance of ESBL producing Enterobacteriaceae (P-147); type: cell-based; conditions: isolates 2015 and 2016
Acinetobacter baumanni = experiment: Antibiotic resistance of Acinetobacter baumanni (P-147); type: cell-based; conditions: imipenem resistant isolates
[22] = CVVHF filter lifespan, LMWH versus regional citrate anticoagulation (P-97); set-up: species or system human; conditions: in vivo
Text: Patients and methods: A monocentric retrospective study was led from January to October 2016. All the CVVHF sessions during this period were included. Prismaflex© monitors (Hospal) were used. Practioners were free to choose between citrate or LMWH defining 2 groups. We aimed a post filter ionized calcemia between 0.25 to 0.5 mmol/L in citrate group + and a post filter anti Xa activity between 0.2 to 0.5 UI/mL in LMWH.

anti-Xa activity = experiment: Population pharmacokinetics of enoxaparin (anti-Xa activity) in pediatric liver transplantation (P-170); type: in vivo, human (children)
Description: Patients and methods: Clinical, biological and kinetic data were retrospectively collected in a single Pediatric Intensive Care Unit center from January 2013 to July 2015. We described an enoxaparin PK model in 22 children the first week following the LT. Anti-Xa activity time-courses were analyzed using a non linear mixed effects approach with Monolix version 2016R.

[23] = Heparin-induced thrombocytopenia in ICU (anti-PF4 antibody test); type: in vivo; conditions: patients hospitalized in ICU
Description: Patients and methods: This was a retrospective, monocentric, descriptive and evaluative study conducted in our intensive care unit (ICU) over a period of 4 years 6 months. An anti-PF4 antibody test was performed in patients who developed thrombocytopenia or a 30% drop in their initial platelet kinetics and the clinical picture.

[24] = Piperacillin-tazobactam 16 g day continuous infusion, PK PD target attainment; type: in vivo, critically ill patients; conditions: MIC 16 mg L^−1 for piperacillin, n = 60
[25] = test system: microorganisms of post-operative pneumonia; experiment: Susceptibility of microorganisms cultured in severe post-operative pneumonia (P-213); type: cell-based; conditions: 66 patients with significant culture
Description: Patients and methods: All patients with severe POP occurring within 30 days after lung resection between January 2013 and December 2015 were included. We collected data on clinical presentation, results of microbiological investigations, antibiotic regimen and outcomes. The quality of antibiotic use was assessed using indicators previously validated in the literature.

[26] = Beta-lactam plasma concentrations in children with severe sepsis or septic shock (HPLC); conditions: current standard dosing

CN(C)CCC=C1c2ccccc2CCc2ccccc21 [AMI, Amitriptylin]
elimination half-life in pharmacological conditions [1]: 24 h
plasma concentration ([2]; median, AMI [0.4 + 1.4], dose 1.5 g, CLO [0.5 + 1.4], dose 3.0 g): 700 ng/mL
elimination half-life in overdose ([2]; non-compartmental analysis): 43 h
coma depth, AMI vs CLO ([2]; p < 0.0001): significantly deeper coma
seizures, AMI vs CLO ([2]; p = 0.02): fewer seizures than CLO

NCC[C@H](O)C(=O)N[C@@H]1C[C@H](N)[C@@H](O[C@H]2O[C@H](CN)[C@@H](O)[C@H](O)[C@H]2O)[C@H](O)[C@H]1O[C@H]1O[C@H](CO)[C@@H](O)[C@H](N)[C@H]1O [Amikacin]
Cmax < 60 mg L^−1 (proportion of patients) [3]: 39%
resistant rate [4]: 57%
strains resistant (Pseudomonas aeruginosa [5]): 62%
median Cmax ([6]; median dosage 22.5 mg kg, initial injection, 191 patients): 72.1 mg·L
patients with Cmax greater than 80 mg l ([6]; of 191 patients): 53 patients
patients with Cmax less than 64 mg l ([6]; of 191 patients): 77 patients
patients not attaining target Cmax 60–80 mg L^−1 [7]: 33%
peaks above 64 mg l [8]: 70%
resistant (Pseudomonas): 44%
resistant (Acinetobacter baumannii): 85%
cases reaching a peak between 60 and 80 μg/ml (mean dose 26 mg kg day, 1 h infusion, 18 burned patients): 55%
total volume of distribution (range (0.28–1.32)): 0.55 L·kg
half-life time (t1 2) (range [1.42–8 h]): 4.70 h
amikacin clearance [9]: 6.4 L·h
correlation between Cpeak at day 1 and Cpeak at day 5 (r) [9]: 0.45
resistance (Escherichia-coli): without resistance

CSCC[C@H](NC(=O)[C@H](CS)NC(=O)CNC(=O)[C@H](Cc1ccc(O)cc1)NC(=O)[C@H](CCC(=O)O)NC(=O)CNC(=O)[C@H](C)NC(=O)[C@H](CC(=O)O)NC(=O)[C@H](CCC(=O)O)NC(=O)[C@H](CCC(=O)O)NC(=O)[C@H](CCC(N)=O)NC(=O)[C@@H](N)CC(C)C)C(N)=O [MOTREM]
product-related adverse events ([10]; 27 healthy male volunteers): No product-related adverse events were reported
effective half-life ([10]; continuous IV infusion, healthy male volunteers): about 3 min
safety and tolerability ([10]; up to 5mg/kg 15-min loading dose and 6 mg kg h for 7.75 hours): safe and well tolerated up to the highest dose tested
GLP toxicology [11]: safe and well tolerated in GLP toxicology studies
clearance (clinical): 110 mL/min/kg
PK linearity [12]: linear

CCCCc1oc2ccccc2c1C(=O)c1cc(I)c(OCCN(CC)CC)c(I)c1 [amiodarone]
OR for recurrences of major arrhythmias with prophylactic AA treatment [13]: 0.9 [0.3–3.1]

Cn1c(=O)c2c(ncn2C)n(C)c1=O [caffeine]
potential caffeine adverse effects between groups or pre and post-caffeine administration [14]: no difference

[C-]#[O+] [carbon monoxide]
mean HbCO level [15]: 51.59%

CC(C)(O/N=C(\C(=O)N[C@@H]1C(=O)N2C(C(=O)[O-])=C(C[n+]3ccccc3)CS[C@H]12)c1csc(N)n1)C(=O)O [ceftazidim]
strains resistant (Pseudomonas aeruginosa [5]): 21%
resistance (P. aeruginosa; isolates 2015 and 2016): 10%
antibiotic resistance of PA ([16]; period 2007–2010 (P1)): 42%
antibiotic resistance of PA ([16]; period 2011–2014 (P2), after antibiotic stewardship, p < 0.01): 11%
resistance (Pseudomonas aeruginosa [17]): 33.3%

CO/N=C(\C(=O)N[C@@H]1C(=O)N2C(C(=O)O)=C(CSc3nc(=O)c(=O)[nH]n3C)CS[C@H]12)c1csc(N)n1 [ceftriaxone]
rate of PK/PD target non-attainment [18]: 62%

C[C@H]1O[C@@H](O[C@H]2[C@@H](O)C[C@H](O[C@H]3[C@@H](O)C[C@H](O[C@H]4CC[C@@]5(C)[C@H](CC[C@@H]6[C@@H]5C[C@@H](O)[C@]5(C)[C@@H](C7=CC(=O)OC7)CC[C@]65O)C4)O[C@@H]3C)O[C@@H]2C)C[C@H](O)[C@@H]1O [digoxin]
patients who died in the ICU [19]: 16%

COC[C@@H](NC(C)=O)C(=O)NCc1ccccc1 [lancosamide, lacosamide]
outcome [20]: died

O=S(=O)([O-])[O-].[Mg+2] [magnesium sulfate]
recurrence of eclampsia despite prevention (eclampsia): 6%

COc1cccc(C2(O)CCCCC2CN(C)C)c1 (stereo not drawn) [tramadol]
interaction with GABA-A receptors (GABA-A receptors): molecular interaction between tramadol and γ-aminobutyric acid (GABA)-A receptors not related to a competitive mechanism

colistin
susceptibility ([4]; colistin excepting with Proteus): 98%
strains susceptible (Pseudomonas aeruginosa [5]; 485 strains from burned patients, disk diffusion): 100%
sensitivity [21]: all bacterial stocks were sensitive
sensitivity (Acinetobacter baumanni): all bacterial stocks were sensitive
sensitivity (P. aeruginosa; Ceftazidim resistant isolates): all bacterial stocks were sensitive

enoxaparin
serious side effect, especially hemorrhage [22]: No serious side effect
typical clearance (CLTYP) (anti-Xa activity; 22 children, first week after LT, one-compartment, scaled to 70 kg, Monolix): 1.26 L/h
typical volume of distribution (VTYP) (anti-Xa activity; 22 children, scaled to 70 kg): 16.9 L
children who never attained the target range of anti-Xa activity 0.2 to 0.4 IU mL (anti-Xa activity; standard 50 IU kg 12 h, 7 children): 32%

heparin
incidence of HIT [23]: 1.71%

piperacillin-tazobactam
rate of empirical target non-attainment [24]: 17%
resistant rate [4]: 87%
patients whose microorganisms were sensitive [25]: 86%
patients with insufficient plasma concentration [26]: 77%
